Data: patent publication US11667649B2, “Heteroaromatic macrocyclic ether chemotherapeutic agents” (Nuvalent, Inc., priority 2020, dated 2023)
Read-outs that look alike come from different tables or passages of the source.

What was measured:
[1] = cc_pd bond, 12-membered ring
[2] = target: T1, TRKA-wt kinase domain (Homo sapiens, UniProt P04629); experiment: Biochemical kinase assay, TRKA-wt; conditions: 2 mM ATP substrate solution, read-out: Ki^app TRKA-wt
T1 construct: TRKA-wt (1 nM, BPS Bio, 40280) kinase domains in buffer; purchased BPS Bio 40280
Outline: (§1)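 Kinase domains (in kinase solution: ROS1-G2032R 0.5 nM, ROS1-wt 0.6 nM, TRKA 1 nM, ALK L1196M/G1202R 3 nM) were mixed with compound and a substrate solution of 2 mM ATP plus 26 μM fluorogenic AQT0101 (ALK, ROS1) or AQT0104 (TRKA) in HEPES pH 7.5/MgCl2. Fluorescence was followed for 120 min at 30° C; Ki^app was obtained by Morrison fit of initial rates.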

[3] = target: T2, ALK-wt kinase domain (Homo sapiens, UniProt Q9UM73); experiment: Biochemical kinase assay, ALK-wt; conditions: 2 mM ATP substrate solution, read-out: Ki^app ALK-wt
T2 construct: TRKA-wt (1 nM, BPS Bio, 40280) kinase domains in buffer; purchased Carna 08-518
Outline: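 Apparent Ki values come from fitting initial reaction rates against inhibitor concentration to the Morrison equation. Rates were taken from the linear phase of fluorogenic substrate phosphorylation (AQT0101 for ALK and ROS1, AQT0104 for TRKA; 26 μM in substrate solution with 2 mM ATP), monitored at 485 nm over 120 min at 30° C.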

[4] = target: T3, ROS1-wt kinase domain (Homo sapiens, UniProt P08922); experiment: Biochemical kinase assay, ROS1-wt; conditions: 2 mM ATP substrate solution, read-out: Ki^app ROS1-wt
T3 construct: TRKA-wt (1 nM, BPS Bio, 40280) kinase domains in buffer; purchased Carna 08-163
Outline: as §1

[5] = target: T4, ROS1-G2032R kinase domain (Homo sapiens, UniProt P08922, G2032R); experiment: Biochemical kinase assay, ROS1-G2032R; conditions: 2 mM ATP substrate solution, read-out: Ki^app ROS1-G2032R
T4 construct: TRKA-wt (1 nM, BPS Bio, 40280) kinase domains in buffer; purchased SignalChem R14-12BG
Outline: as §1

[6] = target: T5, ALK L1196M/G1202R kinase domain (Homo sapiens, UniProt Q9UM73, G1202R/L1196M); experiment: Biochemical kinase assay, ALK L1196M/G1202R; conditions: 2 mM ATP substrate solution, read-out: Ki^app ALK-L1196M-G1202R
T5 construct: TRKA-wt (1 nM, BPS Bio, 40280) kinase domains in buffer; purchased SignalChem A19-12NG
Outline: as §1

Compound | ring closure, yield after HPLC ([1]; from CCn1ncc(Cc2cn(C)nc2-c2ccc(F)cc2[C@@H](C)Oc2cc(Br)cnc2N)c1Br, B2pin2/Pd(OAc)2/cataCXium A/NaOH, MeOH/H2O, 41.0 mM, 80.0 °C, 12.0 h) [%] | ring closure, yield after HPLC ([1]; from CCn1ncc(Cn2ccnc2-c2ccc(F)cc2C(C)Oc2cc(Br)cnc2N)c1Br, B2pin2/Pd(OAc)2/cataCXium A/NaOH, MeOH/H2O, 57.0 mM, 75.0 °C, 3.0 h) [%] | ring closure, yield after HPLC ([1]; from C[C@@H](Oc1cc(Br)cnc1N)c1cc(F)ccc1-c1nn(C)cc1Cn1cc(C#N)cn1, Pd(OAc)2/cataCXium A/KOAc, 2-methyl-2-butanol, 32.0 mM, 120.0 °C) [%] | ring closure, yield after HPLC ([1]; the molecule shown is the open-chain precursor, Pd(OAc)2/cataCXium A/KOAc, 2-methyl-2-butanol, 30.0 mM, 120.0 °C) [%] | Ki [2] [nM] | Ki [3] [nM] | Ki [4] [nM] | Ki [5] [nM] | Ki [6] [nM] | ring closure, yield after HPLC ([1]; from CCc1cc(Cc2cn(C)nc2-c2ccc(F)cc2[C@@H](C)Oc2nc(Br)cnc2N)on1, Pd(OAc)2/cataCXium A/KOAc, 2-methyl-2-butanol, 20.0 mM, 120.0 °C, 6.0 h) [%] | ring closure, yield after HPLC ([1]; from CC(Oc1cc(Br)cnc1N)c1cc(F)ccc1-n1nccc1Cc1cc(C#N)n(C)n1, Pd(OAc)2/cataCXium A/KOAc, 2-methyl-2-butanol, 20.0 mM, 120.0 °C) [%]
CCn1ncc2c1-c1cnc(N)c(c1)O[C@H](C)c1cc(F)ccc1-c1nn(C)cc1C2 | 10 | – | – | – | – | – | – | – | – | – | –
CCn1ncc2c1-c1cnc(N)c(c1)OC(C)c1cc(F)ccc1-c1nccn1C2 (stereo not shown) | – | 10 | – | – | – | – | – | – | – | – | –
C[C@H]1Oc2cc(cnc2N)-c2c(C#N)cnn2Cc2cn(C)nc2-c2ccc(F)cc21 | – | – | 15 | – | – | – | – | – | – | – | –
CC(Oc1cc(Br)cnc1N)c1cc(F)ccc1-c1c(Cn2cnc(C#N)c2)cnn1C (stereo not shown) | – | – | – | 5.9 | – | – | – | – | – | – | –
Cc1nc2c(s1)Cc1cnn(C(F)F)c1-c1cnc(N)c(c1)O[C@H](C)c1cc(F)ccc1-2 [Compound 72] | – | – | – | – | 50 to 500 | < 50 | < 50 | < 50 | < 50 | – | –
CCn1nc(Br)c2c1-c1cnc(N)c(c1)O[C@H](C)c1cc(F)ccc1-c1nn(C)cc1C2 [Compound 148] | – | – | – | – | > 500 | < 50 | < 50 | 50 to 500 | < 50 | – | –
CCn1ncc2c1-c1cnc(N)c(c1)O[C@H](C)c1cc(F)ccc1-n1nc(Cl)cc1C2 [Compound 74] | – | – | – | – | < 50 | < 50 | < 50 | < 50 | < 50 | – | –
CCc1c(C#N)nn2c1-c1cnc(N)c(c1)O[C@H](C)c1cc(F)ccc1-c1nn(C)cc1C2 [Compound 6] | – | – | – | – | 50 to 500 | < 50 | < 50 | < 50 | < 50 | – | –
C[C@H]1Oc2cc(cnc2N)-c2c(nnn2CC2CC2)Cc2cn(C)nc2-c2ccc(F)cc21 [Compound 29] | – | – | – | – | 50 to 500 | < 50 | < 50 | < 50 | < 50 | – | –
Cc1nn(CC2CC2)c2c1Cc1c(nn(C)c1Cl)-c1ccc(F)cc1[C@@H](C)Oc1cc-2cnc1N [Compound 54] | – | – | – | – | > 500 | < 50 | < 50 | < 50 | < 50 | – | –
COc1cc2n(n1)-c1ccc(F)cc1[C@@H](C)Oc1cc(cnc1N)-c1c(nnn1CC1CC1)C2 [Compound 144] | – | – | – | – | 50 to 500 | < 50 | < 50 | < 50 | < 50 | – | –
Cc1cc2n(n1)-c1ccc(F)cc1[C@@H](C)Oc1cc(cnc1N)-c1c(cnn1CC1CC1)C2 [Compound 109] | – | – | – | – | < 50 | < 50 | < 50 | < 50 | < 50 | – | –
CCn1ncc2c1-c1cnc(N)c(c1)O[C@H](C)c1cc(F)ccc1-c1nc(C)cn1C2 [Compound 45] | – | – | – | – | < 50 | < 50 | < 50 | < 50 | < 50 | – | –
CCc1noc2c1-c1cnc(N)c(n1)O[C@H](C)c1cc(F)ccc1-c1nn(C)cc1C2 | – | – | – | – | – | – | – | – | – | 24 | –
CC(C)Cn1ncc2c1-c1cnc(N)c(c1)O[C@H](C)c1cc(F)ccc1-c1nn(C)cc1C2 [Compound 154] | – | – | – | – | > 500 | < 50 | < 50 | < 50 | < 50 | – | –
Cc1cc2n(n1)-c1ccc(F)cc1[C@@H](C)Oc1cc(cnc1N)-c1c(C#N)ncn1C2 [Compound 61] | – | – | – | – | > 500 | 50 to 500 | 50 to 500 | > 500 | > 500 | – | –
CC1Oc2cc(cnc2N)-c2c(nn(C)c2C#N)Cc2ccnn2-c2ccc(F)cc21 (stereo not shown) | – | – | – | – | – | – | – | – | – | – | 17
CCc1nn(C)c2c1-c1cnc(N)c(c1)OCc1cc(F)ccc1-c1nc(C)sc1C2 [Compound 175] | – | – | – | – | 50 to 500 | < 50 | < 50 | < 50 | < 50 | – | –

Compound | ring closure, yield after HPLC ([1]; from CCn1ncc(Cc2cn(C)nc2-c2ccc(F)cc2[C@@H](C)Oc2cc(Br)cnc2N)c1Br, B2pin2/Pd(OAc)2/cataCXium A/NaOH, MeOH/H2O, 41.0 mM, 80.0 °C, 12.0 h) [%] | ring closure, yield after HPLC ([1]; from CCn1ncc(Cn2ccnc2-c2ccc(F)cc2C(C)Oc2cc(Br)cnc2N)c1Br, B2pin2/Pd(OAc)2/cataCXium A/NaOH, MeOH/H2O, 57.0 mM, 75.0 °C, 3.0 h) [%] | ring closure, yield after HPLC ([1]; from C[C@@H](Oc1cc(Br)cnc1N)c1cc(F)ccc1-c1nn(C)cc1Cn1cc(C#N)cn1, Pd(OAc)2/cataCXium A/KOAc, 2-methyl-2-butanol, 32.0 mM, 120.0 °C) [%] | ring closure, yield after HPLC ([1]; the molecule shown is the open-chain precursor, Pd(OAc)2/cataCXium A/KOAc, 2-methyl-2-butanol, 30.0 mM, 120.0 °C) [%] | Ki [2] [nM] | Ki [3] [nM] | Ki [4] [nM] | Ki [5] [nM] | Ki [6] [nM] | ring closure, yield after HPLC ([1]; from CCc1cc(Cc2cn(C)nc2-c2ccc(F)cc2[C@@H](C)Oc2nc(Br)cnc2N)on1, Pd(OAc)2/cataCXium A/KOAc, 2-methyl-2-butanol, 20.0 mM, 120.0 °C, 6.0 h) [%] | ring closure, yield after HPLC ([1]; from CC(Oc1cc(Br)cnc1N)c1cc(F)ccc1-n1nccc1Cc1cc(C#N)n(C)n1, Pd(OAc)2/cataCXium A/KOAc, 2-methyl-2-butanol, 20.0 mM, 120.0 °C) [%]
C[C@H]1Oc2cc(cnc2N)-c2c(nnn2CC2CC2)Cc2cc(C(F)(F)F)nn2-c2ccc(F)cc21 [Compound 128] | – | – | – | – | 50 to 500 | < 50 | < 50 | < 50 | < 50 | – | –
C[C@H]1Oc2cc(cnc2N)-c2c(cnn2CC(F)(F)F)Cc2cn(C)nc2-c2ccc(F)cc21 [Compound 27] | – | – | – | – | > 500 | < 50 | < 50 | < 50 | < 50 | – | –
C[C@H]1Oc2cc(cnc2N)-c2c(nn(C)c2CC2CC2)Cc2cn(C)nc2-c2ccc(F)cc21 [Compound 179] | – | – | – | – | 50 to 500 | < 50 | < 50 | < 50 | < 50 | – | –
Cc1nc2c(s1)Cn1cnc(C#N)c1-c1cnc(N)c(c1)O[C@H](C)c1cc(F)ccc1-2 [Compound 65] | – | – | – | – | > 500 | < 50 | < 50 | < 50 | < 50 | – | –
CC(C)n1nc2c(c1C#N)-c1cnc(N)c(c1)O[C@H](C)c1cc(F)ccc1-n1nccc1C2 [Compound 118] | – | – | – | – | < 50 | < 50 | < 50 | > 500 | 50 to 500 | – | –
CC1Oc2cc(cnc2N)-c2c(cnn2CCF)Cn2ccnc2-c2ccc(F)cc21 (stereo not shown) [Compound 39] | – | – | – | – | > 500 | < 50 | < 50 | < 50 | 50 to 500 | – | –
CCn1nnc2c1-c1cnc(N)c(c1)O[C@H](C)c1cc(F)ccc1-c1nc(C)sc1C2 [Compound 78] | – | – | – | – | 50 to 500 | < 50 | < 50 | < 50 | < 50 | – | –
CC1Oc2cc(cnc2N)-c2c(cnn2CC(F)F)Cn2ccnc2-c2ccc(F)cc21 (stereo not shown) [Compound 40] | – | – | – | – | > 500 | < 50 | < 50 | < 50 | 50 to 500 | – | –
C[C@H]1Oc2cc(cnc2N)-c2c(nnn2CC2CC2)Cc2cc(C(F)F)nn2-c2ccc(F)cc21 [Compound 122] | – | – | – | – | 50 to 500 | < 50 | < 50 | < 50 | < 50 | – | –
CCn1ncc2c1-c1cnc(N)c(c1)O[C@H](C)c1cc(F)ccc1-c1ncccc1C2 [Compound 3] | – | – | – | – | < 50 | < 50 | < 50 | < 50 | < 50 | – | –
CCc1ncn2c1-c1cnc(N)c(c1)O[C@H](C)c1cc(F)ccc1-c1nn(C)cc1C2 [Compound 50] | – | – | – | – | < 50 | < 50 | < 50 | < 50 | < 50 | – | –
CCn1ncc2c1-c1cnc(N)c(c1)OCc1cc(F)ccc1-n1nc(Cl)cc1C2 [Compound 75] | – | – | – | – | 50 to 500 | < 50 | < 50 | < 50 | < 50 | – | –
C[C@H]1Oc2cc(cnc2N)-c2c(nn(C)c2C#N)Cc2cn(C)nc2-c2ccc(F)cc21 [Compound 111] | – | – | – | – | 50 to 500 | < 50 | < 50 | < 50 | < 50 | – | –
CCn1ncc2c1-c1cnc(N)c(c1)O[C@H](C)c1cc(F)ccc1-c1nn(C)cc1C2 [Compound 1] | – | – | – | – | < 50 | < 50 | < 50 | < 50 | < 50 | – | –
CCn1ncc2c1-c1cnc(N)c(c1)O[C@H](C)c1cc(F)ccc1-c1nn(C)c(C)c1C2 [Compound 87] | – | – | – | – | < 50 | < 50 | < 50 | < 50 | < 50 | – | –
CC1Oc2cc(cnc2N)-c2c(cnn2C(F)F)Cn2ccnc2-c2ccc(F)cc21 (stereo not shown) [Compound 44] | – | – | – | – | 50 to 500 | < 50 | < 50 | < 50 | 50 to 500 | – | –
CCc1noc2c1-c1cnc(N)c(c1)O[C@H](C)c1cc(F)cc(F)c1-c1nn(C)cc1C2 [Compound 90] | – | – | – | – | 50 to 500 | < 50 | < 50 | < 50 | < 50 | – | –
